Reference: PubChem BioAssay (NCI)
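Compound exposure: 48 hours, 5 concentrations, 96-well plates. GI50 = concentration required for 50% inhibition of growth. Definition used: TGI = concentration required for complete inhibition of growth.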 *1 amine or outer side, *2 acyl side, *3 side chain or, on linkers, in order; H or OH if unused. Where a SMILES comes first, the peptide text is derived from it. [ ]: non-standard residue; d: D form. ξ: configuration not given here. X21 = CC[C@@H](C)C(N[*:1])C(=O)[*:2]; ξR = N=C(N)NCCCC(N)C(=O)O; ξI = CCC(C)C(N)C(=O)O; ξL = CC(C)CC(N)C(=O)O; ξK = NCCCCC(N)C(=O)O; ξV = CC(C)C(N)C(=O)O; ξA = CC(N)C(=O)O

How the values were obtained:
Experiment in all cases: DTP human tumour cell line panel, 48 h
[1] = tested on: UACC-257 melanoma
[2] = tested on: BT-549 breast
[3] = tested on: SK-OV-3 ovarian
[4] = tested on: EKVX NSCLC
[5] = tested on: NCI/ADR-RES ovarian
[6] = tested on: M14 melanoma
[7] = tested on: OVCAR-5 ovarian
[8] = tested on: ACHN renal
[9] = tested on: NCI-H226 lung
[10] = tested on: T-47D breast

SMILES | GI50 [1] [µM] | TGI [1] [µM] | GI50 [2] [µM] | TGI [2] [µM] | GI50 [3] [µM] | TGI [3] [µM] | GI50 [4] [µM] | TGI [4] [µM] | GI50 [5] [µM] | TGI [5] [µM] | GI50 [6] [µM] | TGI [6] [µM] | GI50 [7] [µM] | TGI [7] [µM] | GI50 [8] [µM] | TGI [8] [µM] | GI50 [9] [µM] | TGI [9] [µM] | GI50 [10] [µM] | TGI [10] [µM]
COc1ccc(N(/C=C/C(=O)C(F)(F)F)CC(=O)c2ccc(Cl)c(Cl)c2)cc1 | 16.7 | 35.4 | 7.57 | 22 | 20.1 | 39.7 | 13.2 | 27.6 | 19 | 39.3 | 12.7 | 25.6 | 16.5 | 30.2 | 12.2 | 25.1 | 18.5 | 37.9 | 18.9 | 48.3
N#Cc1c(N)nc(N2CCOCC2)c(C#N)c1-c1ccccc1Cl | 47.9 | > 100 | 30.5 | > 100 | 41.2 | > 100 | 37.6 | > 100 | 40.2 | > 100 | 60.9 | > 100 | 26.4 | > 100 | – | – | 55.5 | > 100 | 21.2 | > 100
O=C(COc1cccc(/C=C2\CSc3ccccc3C2=O)c1)c1ccc(Cl)cc1 | 2.68 | 6.85 | 1.69 | 3.39 | 8.97 | 41.9 | 7.45 | 17.5 | 2.66 | 7.33 | 1.63 | 3.09 | 1.85 | 4.08 | 1.78 | 3.5 | 4.43 | 16 | 2.15 | 5.43
C[C@H](N)C(=O)N1C[C@H](CCCB(O)O)[C@](N)(C(=O)O)C1 | > 100 | > 100 | > 100 | > 100 | > 100 | > 100 | > 100 | > 100 | > 100 | > 100 | > 100 | > 100 | > 100 | > 100 | > 100 | > 100 | > 100 | > 100 | > 100 | > 100
CCOC(=O)Nc1nc2c(C)cccc2s1 | 39.8 | > 100 | 35.8 | > 100 | > 100 | > 100 | – | – | 38.9 | > 100 | 53 | > 100 | 66.8 | > 100 | 74.6 | > 100 | > 100 | > 100 | 47.4 | > 100
C=C1C[C@@]2(C)C(CC[C@]3(C)C2CC=C2C4CC(C)(C)C[C@@H](OC(=O)/C(C)=C\C)[C@]4(C(=O)O)CC[C@]23C)C(C)(C)C1=O (stereo not given in full) | 3.53 | 16.4 | 1.91 | 3.68 | 14.3 | 33.4 | 4.95 | 19 | 3.45 | 33.4 | 2.39 | 8.49 | 3.17 | 10.3 | 2.04 | 4.12 | 2.23 | 6.16 | 3.25 | 15.2
NS(=O)(=O)c1ccc(NC(=O)c2cccc3cc4ccccc4nc23)cc1 | – | > 100 | – | > 100 | – | > 100 | – | > 100 | – | > 100 | – | > 100 | – | > 100 | – | > 100 | – | 98.7 | – | > 100
Cc1c(N=Cc2ccc(N(CCC#N)CCC#N)cc2)c(=O)n(-c2ccccc2)n1C | – | > 100 | – | > 100 | – | > 100 | – | > 100 | – | > 100 | – | > 100 | – | > 100 | – | 69.1 | – | > 100 | – | > 100
OCC(O)C(O)C(O)/C=N/Nc1nc2ccccc2nc1-c1ccccc1 (stereo not given) | > 100 | > 100 | > 100 | > 100 | > 100 | > 100 | > 100 | > 100 | 45.9 | > 100 | > 100 | > 100 | > 100 | > 100 | > 100 | > 100 | > 100 | > 100 | 41.5 | > 100
Nc1nc(-c2cccc([N+](=O)[O-])c2)cc(-c2cc(-c3cccc([N+](=O)[O-])c3)nc(N)n2)n1 | – | > 100 | – | > 100 | – | > 100 | – | > 100 | – | > 100 | – | > 100 | – | > 100 | – | > 100 | – | > 100 | – | > 100
OCc1ccc(N(CCN2CCCC2)Cc2ccc(F)cc2)cc1Cl | 14.7 | 29 | 24.8 | 86.8 | 7.88 | 31 | – | – | 18.2 | 44.3 | 14.3 | 30.9 | 16 | 40.5 | 21.8 | 72.3 | 1.39 | 3.85 | 19 | 49.2
CCCN(CCSSCCNc1nc(N(C)O)nc(N(C)O)n1)c1nc(N(C)O)nc(N(C)O)n1 | 22.7 | > 100 | 7.6 | > 100 | 3.16 | > 100 | – | – | 6.48 | > 100 | 5.68 | > 100 | > 100 | > 100 | 3.92 | > 100 | 7.76 | > 100 | 7.14 | > 100
Cc1nc(C(N)=S)sc1C(=O)C/C(=N/N)C(=O)Nc1ccc(Cl)cc1 | – | > 100 | – | > 100 | – | > 100 | – | > 100 | – | > 100 | – | > 100 | – | > 100 | – | > 100 | – | > 100 | – | > 100
C=C1C(=O)O[C@H]2[C@H]1CC/C(Cn1cc(-c3cc(C)c(C)cc3C)nn1)=C\CC[C@@]1(C)O[C@@H]21 | – | – | 0.753 | 2.66 | 11.7 | 23.9 | 1.22 | 2.53 | 2.51 | 12.9 | 1.5 | 3.27 | 1.74 | 4.38 | 1.07 | 2.34 | 1.46 | 3.07 | 0.539 | 2.45
CCNCCCn1c2c(c3ccc([N+](=O)[O-])cc3c1=O)C(=O)c1cc(OC)cnc1-2 | 0.157 | 0.92 | 0.172 | 1.2 | 0.0589 | 1.62 | 0.204 | 1.27 | 0.0559 | 0.689 | 0.0408 | 0.437 | 0.176 | 0.675 | 0.0313 | 0.144 | – | – | 0.036 | 12
COc1ccc2c(c1)/C(=N/OC(C)=O)c1c-2c(=O)[nH]c2ccccc12 | 17.3 | 34.2 | 7.99 | 24.1 | – | – | 6.38 | 21.6 | 2.83 | 17.9 | 13.2 | 27.4 | 11.5 | 24.5 | 14.2 | 28.2 | 14.3 | 29.8 | 3 | 27.2
COc1ccc2c(c1)/C(=C/c1cc(OC)c(OC)c(OC)c1)C(=O)N2C | 7.88 | > 80.4 | 2.84 | > 30.4 | 3.2 | 12.5 | 5.1 | > 100 | 3.37 | > 39.7 | – | – | 5.49 | > 100 | 3.6 | > 39.5 | 4.85 | > 100 | 2.59 | 6.45
COc1ccc(-c2csc(NC(=O)c3cc(O)c(O)c(O)c3)n2)cc1 | 11.9 | > 33.3 | 10.9 | > 33.3 | 17.2 | > 33.3 | – | – | 11.2 | > 33.3 | 10.4 | > 33.3 | > 33.3 | > 33.3 | 3.76 | > 33.3 | 9.59 | > 33.3 | 5.19 | 22.6
CN1CCN(c2ccc(C(=O)Nc3cc(-c4cccc(NS(=O)(=O)c5ccccc5)c4)[nH]n3)cc2)CC1 | 11.2 | 27 | 9.38 | 26.3 | 11.7 | 30.9 | – | – | > 100 | > 100 | 6.13 | 20.3 | 13.8 | 46.6 | 7.6 | 26.7 | 12.6 | 40 | 3.8 | 18.6
CNCCCNCCCN1C(=O)c2ccc3c4c(ccc(c24)C1=O)C(=O)N(CCCNCc1ccccc1OC)C3=O | 1.35 | 2.72 | 5.03 | 18.7 | 2.95 | 23.7 | – | – | 12.1 | 71.1 | 1.32 | 2.79 | 1.25 | 4.14 | 0.5 | 3.96 | 1.42 | 4.63 | 1.25 | 4.1
Nc1ncnc2c1cnn2Cc1ccc(Cl)cc1 | – | > 100 | 72.1 | > 100 | > 100 | > 100 | – | – | – | > 100 | – | > 100 | 44.8 | > 100 | – | > 100 | – | > 100 | – | > 100
Cn1c(=O)c(Oc2ccccc2)cc2cnc(NC3CCOCC3)nc21 | > 25 | > 25 | > 25 | > 25 | > 25 | > 25 | – | – | > 25 | > 25 | > 25 | > 25 | > 25 | > 25 | > 25 | > 25 | > 25 | > 25 | > 25 | > 25
Cc1[nH]nc2c1N=C(c1ccccc1Cl)c1cc([N+](=O)[O-])ccc1N2 | > 25 | > 25 | > 15.1 | > 25 | 1.62 | > 25 | – | – | 0.728 | > 25 | 0.687 | > 25 | > 25 | > 25 | 1.07 | > 15.3 | 4.08 | > 19.6 | > 25 | > 25
O=C(Nc1cccc(-n2cc(-c3ccncc3)c(-c3ccc(O)c(Cl)c3)n2)c1)Nc1cccc(C(F)(F)F)c1 | 2.35 | 5.48 | 1.72 | 4.08 | 3.59 | 23.1 | – | – | 3.24 | > 100 | 1.74 | 3.94 | 3.5 | 36.3 | 2.51 | 8.4 | 2.52 | 9.02 | 1.97 | 7.3
CCSc1nnc(-c2ccc3ccccc3c2O)n1-c1ccc(Cl)cc1 | > 100 | > 100 | > 100 | > 100 | 69.5 | > 100 | – | – | 4.45 | > 100 | 8.11 | > 100 | > 100 | > 100 | 4.99 | > 100 | 7.46 | > 100 | 8.96 | > 100
CCC(C)C1NC(=O)C(CC(C)C)NC(=O)C(C)NC(=O)C(C(C)C)NC(=O)C(CCCCN)NC(=O)C(CC(C)C)NC(=O)C(C(C)C)NC(=O)[C@H](C)NC(=O)C(C(C)CC)NC(=O)C(CCCN=C(N)N)NC(=O)C(CCCCN)NC(=O)C(CCCN=C(N)N)NC(=O)C(CCCCN)NC(=O)C([C@H](C)CC)NC(=O)C(CCCCN)NC1=O (stereo not given in full) (cyclo(A[ξV][ξL][ξK][ξV][ξA][ξL][ξI][ξK][X21][ξK][ξR][ξK][ξR][ξI])) | 0.476 | 2.58 | 1.56 | 3.42 | 1.99 | 5.94 | 0.61 | 2.9 | 1.06 | 3.84 | 1.5 | 3.13 | 1.94 | 7.16 | 1.79 | 4.5 | – | – | 0.756 | 4.28
